Data on 9 compounds can be found in PMC3700072, “Synthesis, Anti-Inflammatory, and Ulcerogenicity Studies of Novel Substituted and Fused Pyrazolo[3,4-d]pyrimidin-4-ones” (Scientia Pharmaceutica, 2013).

In general, melting point refers to the temperature of the solid-liquid transition.

For one series, the system named is gastric mucosa of rats. The series is described as follows: gastric ulcerogenic effect (Meshali's method, ulcer index by Robert's method). In kind it is in vivo, rat. More on the design: key to Ulcer index: ulcer index = %incidence/10 + avg no. of ulcers + avg severity (0–4). Conditions: for % ulceration in the population of test animals: oral 10 mg/kg; for Average No. of ulcer / % Incidence/10 / % Ulcerogenicity relative to indomethacin / Average severity / Ulcer index: oral 10 mg/kg on three days; for % Incidence/10: 5 animals per group; for % Ulcerogenicity relative to indomethacin: indomethacin = 100, 10 mg/kg; for Average severity: score 0 to 4; for Ulcer index: sum of the 3 figures. The method, then: The ulcer index was calculated according to Robert’s method.
Adult male albino rats weighing between 100 and 120 g were used. Animals were divided into groups of five animals each. Rats were fasted 20 h before drug administration. Water was given ad libitum. The control group received the vehicle (1% gum acacia) orally. Other groups received indomethacin or test compounds orally in a dose of 10 mg/kg body weight suspended in 1% gum acacia. Rats were fasted for 2 h, allowed to feed for 2 h, then fasted for another 20 h. Rats were given another two doses on the second and third days. On the fourth day, rats were sacrificed by diethyl ether; the stomach of each rat was removed, opened along the greater curvature, and rinsed with cold 0.9% saline. The stomach was stretched, by pins, on a corkboard and inspected with a 3x magnifying lens for any evidence of mucosal damage. The ulcer index was calculated according to Robert’s method. The number of mucosal damage (red spots) was counted and their severity (ulcerogenic severity) was graded from 0 to 4 according to the following score assignment:
The following figures were calculated: • –– % Incidence/10 = [number of rats showing ulcer of any grade divided by total number of rats in the group × 100]/10. • –– Average number of ulcers: number of ulcers in the group/total number of rats in the group. • –– Average severity: Σ [each ulcer multiplied by its score of severity]/number of ulcers in the group. • Ulcer index = the sum of the 3 figures. • Results are tabulated in Table 2.

Series [1] concerns carrageenan-induced rat paw edema. The series is described as follows: carrageenan-induced rat paw edema test. It is filed as in vivo. More on the design: Mean increase in edema weight ± SEM: unit not given here. Conditions: rats, 10 mg/kg intraperitoneally, 4 h after carrageenan; for inhibition in vivo at 10 mg/kg / change in vivo at 10 mg/kg: Rattus norvegicus, ip; for inhibition in vivo at 10 mg/kg: 4 h, read-out: %Inhibition of Paw edema from control group (edema reduction); for change in vivo at 10 mg/kg / Mean increase in edema weight ± SEM: N = 6; for change in vivo at 10 mg/kg: read-out: Mean % increase in edema weight ± SEM; for % Activity relative to indomethacine: indomethacin = 100. The procedure:
The in vivo anti-inflammatory effects of the newly synthesized pyrazolopyrimidine derivatives were assessed by utilizing the functional model of carrageenan-induced rat paw edema using indomethacin as the reference drug. Mean changes and the percent increase in paw edema weight of animals pretreated with the tested compounds after 4 h from the induction of inflammation were measured, together with the percent inhibition of induced rat paw edema by the tested compounds. The anti-inflammatory activity (relative potency) of the tested compounds relative to that of indomethacin was also calculated (Table 1) (Fig. 2).
The in vivo carrageenan-induced rat paw edema model of inflammation was used to evaluate the anti-inflammatory properties of the newly synthesized compounds according to the previously reported Winter et al. method.
Adult male albino rats weighing 100–120 g (obtained from the animal house of the department of Physiology, Faculty of Medicine, Alexandria University) were used throughout the work. Animals were randomly divided into groups of six rats each. They were kept in an animal house under standard conditions of light and temperature with free access to food and water ad libitum and allowed to be accustomed to their environment for two days before testing.
Indomethacin, used as a reference standard (Khahira for Pharmaceutical and Chemical Industry, Cairo, Egypt), and the test compounds were dissolved in DMSO and were injected intraperitoneally at a dose level of 10 mg/kg body weight. Control animals, on the other hand, were intraperitoneally injected with appropriate volume of DMSO only. After one hour of the above treatment, an inflammatory edema in the right hind paw of all animals was induced by subcutaneous injection of 0.05 ml of freshly prepared solution of 1% carrageenan (λ-Carrageenan Sigma–Aldrich Corp. St. Louis, MO, USA) in sterile normal saline (0.9%), into the subplantar tissue of the paw. An equal volume of saline was injected to the left hind paw and served as internal control for the degree of inflammation in the right hind paw.
Four hours after carrageenan injection, animals were decapitated and both the right and left hind paws were excised at a standard point and weighed. The difference in weight from edema between right and left paws was taken as a measure of the degree of inflammation for each animal. The mean increase in weight of the carrageenan-injected paw over the other paw in each group was measured and the percent increase of edema was calculated. The anti-inflammatory efficacy of the tested compounds was assessed by comparing the change in paw weight in the treated animals with that in control animals (treated with DMSO only) and expressed as a percent inhibition of the edema (percent protection against inflammation), calculated according to the following equation: % Inhibition of edema=(1-Wt/Wc)×100 where Wt is the mean increase in paw weight in rats treated with the test compounds and Wc is the mean increase in paw weight in the control group. The anti-inflammatory activity of the test compounds relative to that of indomethacin was also determined (Table 2).
In the anti-inflammatory study, data obtained were expressed as the mean ± standard error (SEM). Statistical significance was determined by comparing the values of the test compounds and the standard with those obtained from the control group of animals using One-way ANOVA with Dunnett’s post-test using the GraphPad Prism version 3.00 for Windows (GraphPad Software, San Diego California USA, www.graphpad.com). The difference in results was considered significant if P < 0.001.
Background: In the carrageenan paw model, swelling and tenderness develop within hours.

Several values for one entry are separate records, joined by “and”; a condition that tells them apart may be missing. Equal entries are not always repeated.

Compound `Cc1nc2c(cnn2-c2ccccc2)c(=O)n1N=C1SCC(=O)N1c1ccc(Cl)cc1` [Compound 10b, 5-{[3-(4-Chlorophenyl)-4-oxo-1,3-thiazolidin-2-ylidene]amino}-6-methyl-1-phenyl-1,5-dihydro-4H-pyrazolo[3,4-d]pyrimidin-4-one] had a melting point of 264 to 267 °C. In the series on gastric mucosa of rats, the “% ulceration in the population of test animals” value (shortened to “% ulceration in the population”) is given as 40–60%, the “Average No. of ulcer” value turned out to be 0.8, the “% Incidence/10” value is given as 6 and the “% Ulcerogenicity relative to indomethacin” value was 46.63%. In the series on gastric mucosa of rats, the Average severity worked out at 1.25 and the Ulcer index was 8.05. For the same compound, in series [1], the inhibition in vivo at 10 mg/kg came out at 58.6%, the change in vivo at 10 mg/kg came to 8.31 ± 0.43%, the “Mean increase in edema weight ± SEM” value was 0.65 ± 0.022 and the “% Activity relative to indomethacine” value was 85.99%.

The compound `Cc1nc2c(cnn2-c2ccccc2)c(=O)n1N=c1scc(-c2ccccc2)n1-c1ccccc1` [Compound 11a, 5-[(3,4-Diphenyl-1,3-thiazol-2(3H)-ylidene)amino]-6-methyl-1-phenyl-1,5-dihydro-4H-pyrazolo[3,4-d]pyrimidin-4-one] came in with a melting point of 258 to 260 °C. Also, in the series with gastric mucosa of rats, the “% ulceration in the population” value was 40–60%, the “Average No. of ulcer” value was 1.6, the “% Incidence/10” value came out at 6 and the “% Ulcerogenicity relative to indomethacin” value amounted to 52.02%. Moreover, in the series on gastric mucosa of rats, the Average severity turned out to be 1.38 and the Ulcer index is recorded as 8.98. For the same compound, in series [1], the inhibition in vivo at 10 mg/kg came out at 53.5%, the change in vivo at 10 mg/kg came to 10.5 ± 0.468%, the “Mean increase in edema weight ± SEM” value turned out to be 0.73 ± 0.021 and the “% Activity relative to indomethacine” value is on record as 78.50%.

With `Cc1nc2c(cnn2-c2ccccc2)c(=O)n1N=c1scc(-c2ccc(Br)cc2)n1-c1ccccc1` [Compound 11b, 5-{[4-(4-Bromophenyl)-3-phenyl-1,3-thiazol-2(3H)-ylidene]amino}-6-methyl-1-phenyl-1,5-dihydro-4H-pyrazolo[3,4-d]pyrimidin-4-one], the melting point lay within 248 to 252 °C. In addition, in the series on gastric mucosa of rats, the “% ulceration in the population” value was determined as 80%, the “Average No. of ulcer” value came out at 1.2, the “% Incidence/10” value was determined as 8 and the Average severity is recorded as 1.33. The Ulcer index in the series on gastric mucosa of rats stood at 10.53. Besides, in series [1], the inhibition in vivo at 10 mg/kg was found to be 57.3%, the change in vivo at 10 mg/kg is 8.42 ± 0.482%, the “Mean increase in edema weight ± SEM” value was 0.67 ± 0.049 and the “% Activity relative to indomethacine” value came out at 84.11%.

Take `Cc1nc2c(cnn2-c2ccccc2)c(=O)n1N=c1scc(-c2ccc(Cl)cc2)n1-c1ccccc1` [Compound 11c, 5-{[4-(4-Chlorophenyl)-3-phenyl-1,3-thiazol-2(3H)-ylidene]amino}-6-methyl-1-phenyl-1,5-dihydro-4H-pyrazolo[3,4-d]pyrimidin-4-one]: the melting point fell in the range of 258 to 259 °C. Moreover, in the series on gastric mucosa of rats, the “% ulceration in the population” value is 40–60%, the “Average No. of ulcer” value came out at 1.6, the “% Incidence/10” value is on record as 6 and the “% Ulcerogenicity relative to indomethacin” value was 53.47%. Moreover, in the series with gastric mucosa of rats, the Average severity turned out to be 1.63 and the Ulcer index was determined as 9.23. Moreover, in series [1], the inhibition in vivo at 10 mg/kg came out at 54.1%, the change in vivo at 10 mg/kg is 10.8 ± 0.457%, the “Mean increase in edema weight ± SEM” value is recorded as 0.72 ± 0.031 and the “% Activity relative to indomethacine” value is 79.44%.

For `Cc1nc2c(cnn2-c2ccccc2)c(=O)n1N=c1scc(-c2ccccc2)n1-c1ccc(Cl)cc1` [Compound 11d, 5-{[3-(4-Chlorophenyl)-4-phenyl-1,3-thiazol-2(3H)-ylidene]amino}-6-methyl-1-phenyl-1,5-dihydro-4H-pyrazolo[3,4-d]pyrimidin-4-one], the melting point lay in the range of 267 to 269 °C. Also, in the series with gastric mucosa of rats, the “% ulceration in the population” value is listed as 80%, the “Average No. of ulcer” value was 1.0, the “% Incidence/10” value is 8 and the “% Ulcerogenicity relative to indomethacin” value came to 59.09%. In addition, in the series with gastric mucosa of rats, the Average severity is on record as 1.20 and the Ulcer index is on record as 10.20. Further, in series [1], the inhibition in vivo at 10 mg/kg is 56.7%, the change in vivo at 10 mg/kg is 8.73 ± 0.868%, the “Mean increase in edema weight ± SEM” value was 0.68 ± 0.065 and the “% Activity relative to indomethacine” value came to 83.18%.

Regarding `Cc1nc2c(cnn2-c2ccccc2)c(=O)n1N=c1scc(-c2ccc(Br)cc2)n1-c1ccc(Cl)cc1` [Compound 11e, 5-{[4-(4-Bromophenyl)-3-(4-chlorophenyl)-1,3-thiazol-2(3H)-ylidene]amino}-6-methyl-1-phenyl-1,5-dihydro-4H-pyrazolo[3,4-d]pyrimidin-4-one], the melting point fell in the range of 261 to 263 °C. In addition, in the series with gastric mucosa of rats, the “% ulceration in the population” value is on record as 20%; the “Average No. of ulcer” value is 0.8; the “% Incidence/10” value stood at 2; the “% Ulcerogenicity relative to indomethacin” value is 26% and 26.36%. In the series with gastric mucosa of rats, the Average severity is reported as 1.75 and the Ulcer index was 4.55. Further, in series [1], the inhibition in vivo at 10 mg/kg turned out to be 66.9%, the change in vivo at 10 mg/kg was determined as 8.74 ± 0.929%, the “Mean increase in edema weight ± SEM” value was determined as 0.52 ± 0.031 and the “% Activity relative to indomethacine” value amounted to 98.14%.

Regarding `CCOC(=O)c1cc2nc3c(cnn3-c3ccccc3)c(=O)n2[nH]c1=O` [Compound 15, Ethyl 4,7-dioxo-1-phenyl-1,4,6,7-tetrahydropyrazolo[3′,4′:4,5]pyrimido[1,2-b]-pyridazine-8-carboxylate], the melting point lay in the range of 172 to 173 °C. Also, in series [1], the inhibition in vivo at 10 mg/kg worked out at 41.4%, the change in vivo at 10 mg/kg was found to be 16.4 ± 1.02%, the “Mean increase in edema weight ± SEM” value is 0.92 ± 0.060 and the “% Activity relative to indomethacine” value worked out at 60.75%.

With `O=c1c2cnn(-c3ccccc3)c2nc2ccc(-c3ccccc3)nn12` [Compound 16, 1,7-Diphenylpyrazolo[3′,4′:4,5]pyrimido[1,2-b]pyridazin-4(1H)-one], the melting point was 118 to 119 °C. Also, in series [1], the inhibition in vivo at 10 mg/kg amounted to 28.1%, the change in vivo at 10 mg/kg came out at 14.3 ± 0.98%, the “Mean increase in edema weight ± SEM” value stood at 1.13 ± 0.067 and the “% Activity relative to indomethacine” value is on record as 41.13%.

Regarding `O=c1c2cnn(-c3ccccc3)c2nc2cc3c(nn12)CCCC3` [Compound 17, 1-Phenyl-7,8,9,10-tetrahydropyrazolo[3′,4′:4,5]pyrimido[1,2-b]cinnolin-4(1H)-one], the melting point is 142 to 145 °C. In series [1], the inhibition in vivo at 10 mg/kg worked out at 29.9%, the change in vivo at 10 mg/kg came out at 15.8 ± 0.756%, the “Mean increase in edema weight ± SEM” value is given as 1.10 ± 0.052 and the “% Activity relative to indomethacine” value amounted to 43.93%.
